Assay results published in ChEMBL document CHEMBL1141678 (Eur J Med Chem, 2008).

Assays:
Cytochrome P450 3A4 [1] = target: T1, Cytochrome P450 3A4 (Homo sapiens, UniProt P08684); experiment: Inhibition of human recombinant CYP3A4 in presence of reduced glutathione; format: ADME; details: recombinant enzyme
Cytochrome P450 2D6 [2] = target: T2, Cytochrome P450 2D6 (Homo sapiens, UniProt P10635); experiment: Inhibition of human recombinant CYP2D6 in presence of reduced glutathione; format: ADME; details: recombinant enzyme
Cytochrome P450 2B6 [3] = target: T3, Cytochrome P450 2B6 (Homo sapiens, UniProt P20813); experiment: Inhibition of human recombinant CYP2B6 in presence of reduced glutathione; format: ADME; details: recombinant enzyme
T3 sequence (P20813 whole entry): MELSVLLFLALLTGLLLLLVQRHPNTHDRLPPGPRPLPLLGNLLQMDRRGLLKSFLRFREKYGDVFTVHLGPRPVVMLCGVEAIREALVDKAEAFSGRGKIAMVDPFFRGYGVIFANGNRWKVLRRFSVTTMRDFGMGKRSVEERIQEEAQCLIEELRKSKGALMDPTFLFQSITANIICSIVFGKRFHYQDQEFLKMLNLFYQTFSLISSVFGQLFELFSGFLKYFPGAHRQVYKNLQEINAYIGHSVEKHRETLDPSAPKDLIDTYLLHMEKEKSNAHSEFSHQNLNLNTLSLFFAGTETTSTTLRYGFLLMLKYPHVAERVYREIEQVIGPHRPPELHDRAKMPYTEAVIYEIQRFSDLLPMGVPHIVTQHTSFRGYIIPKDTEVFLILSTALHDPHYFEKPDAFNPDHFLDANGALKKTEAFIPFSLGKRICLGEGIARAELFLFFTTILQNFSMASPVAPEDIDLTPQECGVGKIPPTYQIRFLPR

Cytochrome P450 2D6 [4] = target: T2, Cytochrome P450 2D6; experiment: Inhibition of human recombinant CYP2D6; format: ADME
Cytochrome P450 2C9 [5] = target: T4, Cytochrome P450 2C9 (Homo sapiens, UniProt P11712); experiment: Inhibition of human recombinant CYP2C9 in presence of reduced glutathione; format: ADME; details: recombinant enzyme
Cytochrome P450 2C9 [6] = target: T4, Cytochrome P450 2C9; experiment: Inhibition of human recombinant CYP2C9; format: ADME
Cytochrome P450 1A2 = target: T5, Cytochrome P450 1A2 (Homo sapiens, UniProt P05177); experiment: Inhibition of human recombinant CYP1A2; details: for log(1/IC50): human
T5 sequence (P05177 whole entry): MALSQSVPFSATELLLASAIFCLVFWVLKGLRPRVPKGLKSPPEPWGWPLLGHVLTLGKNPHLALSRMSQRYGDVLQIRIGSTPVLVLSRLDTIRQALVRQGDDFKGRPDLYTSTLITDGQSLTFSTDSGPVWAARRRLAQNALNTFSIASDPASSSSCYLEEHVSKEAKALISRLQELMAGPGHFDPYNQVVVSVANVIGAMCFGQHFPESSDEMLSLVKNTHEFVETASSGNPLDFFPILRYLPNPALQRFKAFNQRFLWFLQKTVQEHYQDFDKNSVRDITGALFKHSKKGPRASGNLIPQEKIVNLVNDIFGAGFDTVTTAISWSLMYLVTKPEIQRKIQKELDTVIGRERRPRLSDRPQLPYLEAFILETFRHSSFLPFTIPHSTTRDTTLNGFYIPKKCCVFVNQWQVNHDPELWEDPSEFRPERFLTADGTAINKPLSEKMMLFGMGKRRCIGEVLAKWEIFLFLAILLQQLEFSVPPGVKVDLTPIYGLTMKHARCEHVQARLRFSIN

Cytochrome P450 2B6 [7] = target: T3, Cytochrome P450 2B6; experiment: Inhibition of human recombinant CYP2B6; format: ADME
Cytochrome P450 3A4 [8] = target: T1, Cytochrome P450 3A4; experiment: Inhibition of human recombinant CYP3A4; format: ADME
CYP2B6 = target: T6, CYP2B6 (Homo sapiens, UniProt P20813); experiment: Inhibition of human recombinant CYP2B6 at 100 uM; format: ADME
T6 sequence (P20813 whole entry): T3 sequence (P20813 whole entry)

T4 sequence (P11712 whole entry): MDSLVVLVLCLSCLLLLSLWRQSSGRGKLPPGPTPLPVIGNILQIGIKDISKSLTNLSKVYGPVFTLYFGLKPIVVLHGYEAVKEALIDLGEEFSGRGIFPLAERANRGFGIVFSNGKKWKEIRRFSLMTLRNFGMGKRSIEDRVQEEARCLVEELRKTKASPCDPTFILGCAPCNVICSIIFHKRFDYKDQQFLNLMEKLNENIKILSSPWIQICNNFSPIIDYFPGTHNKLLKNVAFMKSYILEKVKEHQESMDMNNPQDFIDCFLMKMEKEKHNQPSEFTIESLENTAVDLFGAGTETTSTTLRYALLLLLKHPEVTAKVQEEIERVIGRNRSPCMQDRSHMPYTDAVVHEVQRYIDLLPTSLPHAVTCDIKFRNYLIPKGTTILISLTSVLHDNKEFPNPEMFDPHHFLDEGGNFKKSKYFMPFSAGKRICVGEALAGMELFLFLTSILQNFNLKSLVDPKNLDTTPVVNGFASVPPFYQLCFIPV
T2 sequence (P10635 whole entry): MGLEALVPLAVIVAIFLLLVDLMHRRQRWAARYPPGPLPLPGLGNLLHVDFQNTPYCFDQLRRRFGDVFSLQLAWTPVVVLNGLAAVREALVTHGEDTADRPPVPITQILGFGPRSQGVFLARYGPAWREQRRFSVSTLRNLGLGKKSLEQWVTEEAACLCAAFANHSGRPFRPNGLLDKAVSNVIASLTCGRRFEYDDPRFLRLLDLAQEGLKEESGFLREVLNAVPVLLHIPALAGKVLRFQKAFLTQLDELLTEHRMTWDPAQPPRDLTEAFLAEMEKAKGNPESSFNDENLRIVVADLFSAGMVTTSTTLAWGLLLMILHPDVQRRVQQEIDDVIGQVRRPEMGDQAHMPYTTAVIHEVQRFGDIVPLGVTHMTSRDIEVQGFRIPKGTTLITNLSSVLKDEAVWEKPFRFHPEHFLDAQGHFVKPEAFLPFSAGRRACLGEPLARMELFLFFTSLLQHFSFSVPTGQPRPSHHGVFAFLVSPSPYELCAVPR
T1 sequence (P08684 whole entry): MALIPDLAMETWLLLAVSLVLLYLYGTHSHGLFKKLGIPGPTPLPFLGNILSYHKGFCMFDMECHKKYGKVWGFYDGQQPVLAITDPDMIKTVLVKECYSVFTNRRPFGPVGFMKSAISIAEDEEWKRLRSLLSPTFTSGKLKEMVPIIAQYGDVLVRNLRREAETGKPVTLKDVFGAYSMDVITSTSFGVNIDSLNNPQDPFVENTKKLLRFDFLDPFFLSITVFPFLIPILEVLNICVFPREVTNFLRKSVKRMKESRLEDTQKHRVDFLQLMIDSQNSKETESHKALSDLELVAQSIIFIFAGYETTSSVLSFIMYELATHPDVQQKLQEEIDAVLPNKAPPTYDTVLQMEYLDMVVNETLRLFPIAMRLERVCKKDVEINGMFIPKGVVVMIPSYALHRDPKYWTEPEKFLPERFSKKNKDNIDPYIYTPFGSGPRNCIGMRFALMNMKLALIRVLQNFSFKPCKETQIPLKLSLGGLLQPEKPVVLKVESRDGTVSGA

Row | Compound | Activity (Cytochrome P450 3A4 [1]) | Activity (Cytochrome P450 2D6 [2]) | Activity (Cytochrome P450 2B6 [3]) | IC50 (Cytochrome P450 2D6 [4]) [µM] | Activity (Cytochrome P450 2C9 [5]) | IC50 (Cytochrome P450 2C9 [6]) [µM] | IC50 (Cytochrome P450 1A2) [µM] | log(1/IC50) (Cytochrome P450 1A2; recombinant CYP1A2) | IC50 (Cytochrome P450 2B6 [7]) [µM] | IC50 (Cytochrome P450 3A4 [8]) [µM] | inhibition at 100 µM (CYP2B6) [%] | log(1/IC50) (Cytochrome P450 1A2; recombinant enzyme) [mM]
1 | CC(C)(C)c1cc(/C=C2\CC/C(=C\c3cc(C(C)(C)C)c(O)c(C(C)(C)C)c3)C2=O)cc(C(C)(C)C)c1O | Not Active | Not Active | Not Active | 119 | Not Active | 55 | 42.8 | 1.369 |  |  |  | 
2 | COc1cc(/C=C2\CC/C(=C\c3cc(OC)c(O)c(OC)c3)C2=O)cc(OC)c1O | Not Active | Not Active | Not Active |  | Not Active |  |  |  | 70 | 38.3 | > 20 | 
3 | Cc1cc(/C=C/C(=O)/C=C/c2cc(C)c(O)c(C)c2)cc(C)c1O | Not Active | Not Active | Not Active | 13.2 | Not Active | 62.8 | 30.4 | 1.517 | 44.8 | 40.3 | > 20 | 

Results, then the molecule that gave them:

Row | Activity (Cytochrome P450 3A4 [1]) | Activity (Cytochrome P450 2D6 [2]) | Activity (Cytochrome P450 2B6 [3]) | IC50 (Cytochrome P450 2D6 [4]) [µM] | Activity (Cytochrome P450 2C9 [5]) | IC50 (Cytochrome P450 2C9 [6]) [µM] | IC50 (Cytochrome P450 1A2) [µM] | log(1/IC50) (Cytochrome P450 1A2; recombinant CYP1A2) | IC50 (Cytochrome P450 2B6 [7]) [µM] | IC50 (Cytochrome P450 3A4 [8]) [µM] | inhibition at 100 µM (CYP2B6) [%] | log(1/IC50) (Cytochrome P450 1A2; recombinant enzyme) [mM] | Compound
4 |  |  |  | 50.3 |  |  | 40 |  | 24.5 | 16.3 |  |  | COc1cc(/C=C/C(=O)CC(=O)/C=C/c2ccc(O)c(OC)c2)ccc1O [CURCUMIN]
5 | Not Active | Not Active | Not Active | 82.7 | Not Active | 59 | 75.2 |  | 24.8 | 13.2 | > 20 | 1.124 | COc1cc(/C=C/C(=O)/C=C/c2cc(OC)c(O)c(OC)c2)cc(OC)c1O
